Results published in US20070167499A1, “Biaryl linked hydroxamates: preparation and pharmaceutical applications” (A*BIO Pte Ltd., priority 2003, published 2007).
pIC50: −log10 of the molar value.

Legend:
HDAC1 enzyme (GST-HDAC1) = molecular target: T1, HDAC1 enzyme (GST-HDAC1) (Homo sapiens, UniProt Q13547); assay: In vitro HDAC assay for determination of IC50 values (BIOMOL fluorescent-based HDAC activity assay), HDAC1; type: biochemical; conditions: 600 nM HDAC1 enzyme, 500 μM Flur de lys generic substrate, room temperature 2 h
T1 construct: Amplification of human HDAC1 and HDAC8 coding region from this cDNA library; made in house; host or cells: SF9 insect cells (baculovirus, pDEST20 vector)
T1 sequence (Q13547 whole entry): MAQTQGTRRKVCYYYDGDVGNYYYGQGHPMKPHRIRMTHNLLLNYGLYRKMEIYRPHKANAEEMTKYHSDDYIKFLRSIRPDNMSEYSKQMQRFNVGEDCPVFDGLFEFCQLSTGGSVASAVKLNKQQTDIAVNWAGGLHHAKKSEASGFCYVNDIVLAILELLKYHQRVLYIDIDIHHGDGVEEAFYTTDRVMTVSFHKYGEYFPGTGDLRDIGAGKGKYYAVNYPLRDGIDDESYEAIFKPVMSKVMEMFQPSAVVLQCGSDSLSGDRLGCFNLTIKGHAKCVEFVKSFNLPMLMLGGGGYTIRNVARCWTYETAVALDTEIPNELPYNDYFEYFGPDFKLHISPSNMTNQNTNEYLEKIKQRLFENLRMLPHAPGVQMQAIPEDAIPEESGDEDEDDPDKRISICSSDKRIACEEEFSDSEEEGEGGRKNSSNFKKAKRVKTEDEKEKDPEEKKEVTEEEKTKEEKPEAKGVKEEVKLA
Description: Recombinant GST-HDAC1 and GST-HDAC-8 Protein expression and purification
Human cDNA library was prepared using cultured SW620 cells. Amplification of human HDAC1 and HDAC8 coding region from this cDNA library was cloned separately into the baculovirus expression pDEST20 vector and pFASTBAC vector respectively (GATEWAY Cloning Technology, Invitrogen Pte Ltd). The pDEST20-HDAC1 and pFASTBAC-HTGST-HDAC8 constructs were confirmed by DNA sequencing. Recombinant baculovirus was prepared using the Bac-To-Bac method following the manufacturer's instruction (Invitrogen Pte Ltd). Baculovirus titer was determined by plaque assay to be about 10^8 PFU/ml.
Expression of GST-HDAC1 or HTGST-HDAC8 was done by infecting SF9 cells (Invitrogen Pte Ltd) with pDEST20-HDAC1 or pFASTBAC-GST-HDAC8 baculovirus at MOI=1 for 48 h. Soluble cell lysate was incubated with pre-equilibrated Glutathione Sepharose 4B beads (Amersham) at 4° C. for 2 h. The beads were washed with PBS buffer for 3 times. The GST-HDAC1 protein or GST-HDAC8 protein was eluted by elution buffer containing 50 mM Tris, pH8.0, 150 mM NaCl, 1% Triton X-100 and 10 mM or 20 mM reduced Glutathione. The purified GST-HDAC1 protein or purified GST-HDAC8 protein was dialyzed with HDAC storage buffer containing 10 mM Tris, pH7.5, 100 mM NaCl and 3 mM MgCl2. 20% Glycerol was added to purified GST-HDAC1 protein or purified GST-HDAC8 before storage at −80° C.
In vitro HDAC assay for determination of IC50 values
The assay has been carried out in 96 well format and the BIOMOL fluorescent-based HDAC activity assay has been applied. The reaction composed of assay buffer, containing 25 mM Tris pH 7.5, 137 mM NaCl, 2.7 mM KCl, 1 mM MgCl2, 1 mg/ml BSA, tested compounds, 500 nM HDAC8 enzyme or 600 nM HDAC1 enzyme, 200 μM Flur de lys p53 peptide substrate for HDAC8 enzyme or 500 μM Flur de lys generic substrate for HDAC1 enzyme and subsequently was incubated at room temperature for 2 h. Flur de lys Developer was added and the reaction was incubated for 10 min. Briefly, deacetylation of the substrate sensitizes it to the developer, which then generates a fluorophore The fluorophore is excited with 360 nm light and the emitted light (460 nm) is detected on a fluorometric plate reader (Tecan Ultra Microplate detection system, Tecan Group Ltd.).
The analytical software, Prism 3.0® (GraphPad Software Inc) has been used to generate IC50 from a series of data.

Colo205 = assay: Cell-based proliferation assay for determination of GI50 values, colon cancer cell line; conditions: Homo sapiens, COLO 205; 96 h treatment, cyquant cell proliferation assay; read-out: Cellular activities GI50, Colo205
Description: (§1) Cell-based Proliferation assay for determination of GI50 values
(§2) Three different cancer cell lines were obtained from ATCC: Human colon cancer cell line (Colo205), human breast cancer cell lines (MDA-MB435), and human lung cancer cell line (NCl-H522). Colo205 cells and NCl-H522 were cultivated in RPMI 1640 containing 2 mM
(§3) L-Glutamine, 5% FBS, 1.0 mM Na Pyruvate. MDA-MB435 cells were cultivated in DMEM containing 2 mM L-Glutamine, 5% FBS. Colo205 cells were seeded in 96-wells plate at 2000 and 5000 cells per well respectively. MDA-MB435 and NCl-H522 cells were seeded in 96-wells plate at 6000 cells per well. The plates were incubated at 37° C., 5% CO2, for 24 h. Cells were treated with compounds at various concentrations for 96 h. Cell growth was then monitored using cyquant cell proliferation assay (Invitrogen Pte Ltd). Dose response curves were plotted to determine GI50 values for the compounds using XL-fit (ID Business Solution, Emeryville, Calif.).

MDA-MB435 = assay: Cell-based proliferation assay for determination of GI50 values, breast cancer cell line; conditions: Homo sapiens, MDA-MB-435; 96 h treatment, cyquant cell proliferation assay; read-out: Cellular activities GI50, MDA-MB435
Description: as §1, §2, §3

[1] = system: acetylated H4 in Colo205 cells; assay: Histone H4 acetylation assay (western-blot); type: cell-based, human; design: key: “Active” means accumulation of acetylated histone was observed when compared with control (without compound); conditions: Colo205 cells, 0.1, 1, 5 and 10 μM, after 24 h
Description: Histone H3, H4 and H2A acetylation assay
A hallmark of histone deacetylase (HDAC) inhibition is the increase in the acetylation level of histones. Histone acetylation, including H3, H4 and H2A can be detected by immuno-blotting (western-blot). Colo205 cells, approximately 1.5×10^6 cells/10 cm dish, were seeded in the previously described medium, cultivated for 24 h and subsequently treated with HDAC inhibitory agents at 0.1, 1, 5 and 10 μM final concentration. After 24 h, cells were harvested and lysed according to the instruction from Sigma Mammalian Cell Lysis Kit. The protein concentration was quantified using BCA method (Sigma Pte Ltd). The protein lysate was separated using 4-12% bis-tris SDS-PAGE gel (Invitrogen Pte Ltd) and was transferred onto PVDF membrane (BioRad Pte Ltd). The membrane was probed separately using primary antibody specific for acetylated H3, acetylated H4 or acetylated H2A (Upstate Pte Ltd). The detection antibody, goat anti rabbit antibody conjugated with horse radish peroxidase (HRP) was used according to the manufacturing instruction (Pierce Pte Ltd). After removing the detection antibody from the membrane, an enhanced chemiluminescent substrate for detection of HRP (Pierce Pte Ltd) was added onto the membrane. After removing the substrate, the membrane was exposed to an X-ray film (Kodak) for 1 sec-20 mins. The X-ray film was developed using the X-ray film processor. The density of each band observed on the developed film could be analysed using UVP Bioimaging software (UVP, Inc, Upland, Calif.). The values were then normalized against the density of actin in the corresponding samples to obtain the expression of the protein.

| SMILES | pIC50 (HDAC1 enzyme (GST-HDAC1)) | GI50 (Colo205) | GI50 (MDA-MB435) | Histone 4 acetylation [1] |
| --- | --- | --- | --- | --- |
| O=C(Cc1ccc(-c2csc(NC(=O)Cc3ccccc3)n2)s1)NO [Example 1, N-Hydroxy-2-[5-(2-phenylacetylamino-thiazol-4-yl)-thiophen-2-yl]-acetamide] | < 4.00 | 12.1 µM |  |  |
| Nc1nc(-c2ccc(/C=C/C(=O)NO)cc2)cs1 [Example 23, 3-[4-(2-Amino-thiazol-4-yl)-phenyl]-N-hydroxy-acrylamide] | 6.29 | 7.72 µM | 4.46 µM | Active |
| O=C(NO)c1ccc(-c2ccc(CNCCc3ccccc3)cc2)s1 [Example 26, 5-[4-(Phenethylamino-methyl)-phenyl]-thiophene-2-carboxylic acid hydroxyamide] | 7.18 | 1.86 µM | 2.66 µM | Active |
| O=C(NO)c1ccc(-c2ccc(CNCCc3ccccn3)cc2)s1 [Example 27] | 6.70 | 2.39 µM | 1.49 µM | Active |
